# “Also recorded” adds a separate entry of the source. Structures can show the parent of a compound that is named as a salt.
# Tests used:
# [1] = test system: CREB mediated reporter activity; test: CRE / CREB mediated reporter assay; assay type: cell-based
# [2] = target: T1, AR (Homo sapiens, UniProt P10275); test: AR binding
# T1 sequence (P10275 1-920): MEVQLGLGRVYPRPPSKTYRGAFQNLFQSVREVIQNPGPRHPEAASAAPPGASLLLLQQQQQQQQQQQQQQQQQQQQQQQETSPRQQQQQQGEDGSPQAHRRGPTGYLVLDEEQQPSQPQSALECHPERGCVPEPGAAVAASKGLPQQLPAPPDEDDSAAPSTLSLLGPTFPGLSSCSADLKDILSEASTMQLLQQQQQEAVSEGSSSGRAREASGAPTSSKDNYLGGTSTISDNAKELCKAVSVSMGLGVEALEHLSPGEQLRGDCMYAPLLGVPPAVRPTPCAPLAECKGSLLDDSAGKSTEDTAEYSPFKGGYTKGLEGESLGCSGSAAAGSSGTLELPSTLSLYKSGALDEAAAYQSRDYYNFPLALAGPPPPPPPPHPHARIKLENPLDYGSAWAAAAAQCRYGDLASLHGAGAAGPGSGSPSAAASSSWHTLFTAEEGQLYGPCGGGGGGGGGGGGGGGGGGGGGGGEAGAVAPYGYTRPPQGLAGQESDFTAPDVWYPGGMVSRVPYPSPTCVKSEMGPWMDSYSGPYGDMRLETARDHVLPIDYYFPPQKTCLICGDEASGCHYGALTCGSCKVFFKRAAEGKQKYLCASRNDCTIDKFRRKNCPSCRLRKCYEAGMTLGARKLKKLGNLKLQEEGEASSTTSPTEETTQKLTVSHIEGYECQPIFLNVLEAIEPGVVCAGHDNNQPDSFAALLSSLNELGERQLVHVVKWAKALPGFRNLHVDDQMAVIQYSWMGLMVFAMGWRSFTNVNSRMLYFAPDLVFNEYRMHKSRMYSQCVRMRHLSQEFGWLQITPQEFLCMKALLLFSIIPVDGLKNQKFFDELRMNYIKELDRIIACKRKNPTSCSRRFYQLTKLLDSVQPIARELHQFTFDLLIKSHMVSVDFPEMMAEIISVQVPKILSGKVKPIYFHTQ
# Text: In particular, JN018 has the following properties: (1) AR TAD is its molecular target. […] (3) JN018 induces rapid degradation of the full-length AR (ARFL) and constitutively active AR splice variants (ARSV) that lack a functional LBD. […] (5) JN018 causes growth inhibition of castration resistant prostate cancer xenografts. (6) JN018 inhibits AR-driven gene expression.
# [3] = test system: prostate cancer cell lines; test: Growth inhibition of prostate cancer cell lines (IC50); assay type: cell-based
# [4] = test system: glucocorticoid response element (GRE) / glucocorticoid receptor; test: GRE reporter assay; assay type: cell-based
# Method: FIG. 11B. Effects of JN series compounds in reporter assays for glucocorticoid response element. Experiments were performed in triplicate and results are means+/−s.d.
# [5] = test system: AR-null PCa cells (DU145, PC3); test: MTT / CellTiter GLO cell viability, AR-null prostate cancer cells
# Method: The results are means of quadruplicate expts±s.d. Top panel: CellTiter GLO luminescent bioassay (arbitrary units on vertical axis). Bottom panel: classical MTT assay ([blue/yellow]=[viable/non-viable]).
# Experiments were performed in quadruplicate; results are means+/−s.d.
# AR null PC3 cells were exposed to the indicated compounds for 6 days; cell viability was measured by MTT assay. Results were normalized to that of vehicle control. Experiments were performed in quadruplicate; results are means+/−s.d.
# For each compound and concentration in the figure, the bars represent relative cell viability of 22Rv1, LAPC4, and DU145, from left to right.
# For each compound and concentration in the figure, the bars represent relative cell viability of CWR22 and PC3, from left to right.
# [6] = test system: androgen response element (ARE); test: ARE reporter assay (tandem copies of the androgen response element); assay type: cell-based
# Method: FIG. 11A. Effects of JN series compounds in reporter assays for androgen response element. Experiments were performed in triplicate and results are means+/−s.d.
# [7] = Table 3 grade HIGH/MED/LOW, grades not defined
structure (smiles),measurement,setting,value
"C=C(CN(C)Cc1ccccc1)C(=O)/C(=C/c1ccc(Cl)cc1)c1ccccc1 [JN018, (E)-4-((Benzyl(methyl)amino)methyl)-1-(4-chlorophenyl)-2-phenylpenta-1,4-dien-3-one hydrochloride]",CRE,[1]; [7],LOW
same,CREB mediated reporter activity,[1]; result in words,does not affect
same,binding to the AR,[2]; result in words,"direct, selective, high affinity covalent binding"
same,Kd,[2]; unit inferred,7.3 nM
same,IC50,[3],1500 nM
same,GRE,[4]; [7],LOW
same,GR / GRE mediated reporter (transcriptional) activity,"[4]; result in words, hydrochloride",does not inhibit; also recorded: does not affect
same,MTT AR-Neg,[5]; [7],LOW
same,growth of AR null prostate cancer cells,[5]; result in words,had no effect
same,ARE,[6]; [7],HIGH
same,reporter activity driven by the ARE,[6]; result in words,inhibits reporter activity

# Reference: US11261152B2, “Inhibitors of the N-terminal domain of the androgen receptor” (The Regents of the University of California, priority 2017, dated 2022)
